The values below are quoted from earlier work in patent US20070117788A1, “Combination of a dopamine D2-receptor agonist and tiotropium or a derivative therof for treating obstructive airways and other inflammatory diseases” (Boehringer Ingelheim Pharma GmbH & Co. KG, priority 2001, published 2007).

Data set [1] relates to antigen-challenged pig.
Data set [2] deals with δ and ε protein kinase C. Particulars: with ethanol, neural cells in culture.

On to `CCCn1c(=O)c2c(C)nc(CC)n2c2nc(OC)ccc21` [Example D-22888], for which, in data set [1], the anti-allergic effect entry is “strong anti-allergic affect” and the rhinorrhea entry is reported as “inhibit rhinorrhea”.

As for `Br.CCCN1CCc2cc(O)cc3c2[C@H]1Cc1ccc(O)c(O)c1-3` [R(−)-2,10,11-trihydroxy-N-propyl-noraporphine hydrobromide], in data set [2], the “translocation of δ and ε protein kinase C” value was “acts synergistically with ethanol to cause translocation”.
